The structures appear in SMILES notation. Like-named read-outs stand apart in the source and are kept apart here. Bounds are passed on as bounds.

Format in all cases: cell-based
The test system of test [1] is Lymphoma B lymphocytes (Raji). Briefly: Antiproliferative activity, trypan blue staining and automated counting. As to conditions: Homo sapiens.
Test [2] deals with Breast cancer cells (MCF7). As to the kind of experiment: Antiproliferative activity, CELLTITER-GLO luminescent cell viability assay. Particulars: Homo sapiens, combination of vitamin C and compound A6 (weight ratio 100:1), concentration of the named component. As to the method:
(§1) The antiproliferative activity of vitamin C (L-ascorbic acid) and/or compound A6 was determined in Colon26 (colon cancer), GS9L (glioblastoma), Jurkat (leukemia), MCF7 (breast cancer), and U87MG (glioblastoma). Jurkat cells were cultured in RPMI-1640 medium supplemented with 10% heat-inactivated fetal bovine serum (FBS), penicillin (100 U/mL), and streptomycin (100 μg/mL). Normal lymphocytes were cultured in the same medium supplemented with 10% FBS only. Adhesive cancer cell lines (Colon26, GS9L, MCF7, and U87MG) were cultured in DMEM supplemented with 10% FBS, penicillin (100 U/mL), and streptomycin (100 μg/mL). Adhesive non-cancer cell lines, FHC and MCF10A, were cultured in DMEM-F12 and DMEM, respectively, each supplemented with 10% FBS and growth factors. EOC2 cells were cultured in DMEM supplemented with 10% FBS. All cells were cultured in a humidified atmosphere containing 5% CO2 at 37° C. The adhesive cells were released using a trypsin-EDTA solution (0.05% of trypsin/EDTA) and subsequently washed with PBS. The cells were collected by centrifugation (1,000×g/10 min for leukemia lymphocytes; 1,500×g/15 min for normal lymphocytes; and 800×g/5 min for adhesive cells) and placed in a fresh medium without antibiotics and growth factors prior to treatment with vitamin C and/or compound A6. The cells (1×10^6 cells/mL for non-adhesive and 3×10^5 cells/mL for adhesive) were incubated with vitamin C and/or compound A6 for different time intervals in a cell incubator. At each time interval, aliquots were removed for analyses. For other cell lines, cell proliferation and viability were analyzed using the CELLTITER-GLO luminescent cell viability assay. Briefly, 100 μL aliquots of a cell suspension were placed in a well of a 96-well plate and incubated with vitamin C and/or compound A6 for 24 and 48 h in a humidified atmosphere containing 5% CO2 at 37° C. The CELLTITER-GLO reagent containing luciferin and luciferase (100 μL) was added to each well, followed by incubation. The luminescence produced by the luciferase-catalyzed conversion of luciferin into oxyluciferin by living cells was detected using a microplate reader in a chemiluminescent mode.
Background: Cellular ATP, detected with luciferase, serves as a proxy for viable cell number.

For test [3], the system named is Human glioblastoma cells (U87MG). Described as above. As to conditions: U-87 MG, combination of vitamin C and compound A6 (weight ratio 100:1), concentration of the named component. Here is the method: as §1
The test system of a further test is Normal microglial cells. Described as above. As to conditions: combination of vitamin C and compound A6 (weight ratio 100:1), concentration of the named component. As to the method:
as §1

Test [4] deals with Normal colon epithelial cells (FHC). The test is described as above. As to conditions: combination of vitamin C and compound A6 (weight ratio 100:1), concentration of the named component. As to the method:
as §1

Test [5] concerns Normal breast epithelial cells (MCF10A). Described as above. As to conditions: Homo sapiens, MCF-10A, combination of vitamin C and compound A6 (weight ratio 100:1), concentration of the named component. As to the method: as §1
Test [6] relates to Colon cancer cells (Colon 26). Described as above. As to conditions: Mus musculus. As to the method: as §1
Test [7] deals with Leukemia T lymphocytes (Jurkat). Briefly: Antiproliferative activity, trypan blue staining and automated counting. Particulars: Homo sapiens. As to the method:
(§2) The antiproliferative activity of vitamin C (L-ascorbic acid) and/or compound A6 was determined in Colon26 (colon cancer), GS9L (glioblastoma), Jurkat (leukemia), MCF7 (breast cancer), and U87MG (glioblastoma). Jurkat cells were cultured in RPMI-1640 medium supplemented with 10% heat-inactivated fetal bovine serum (FBS), penicillin (100 U/mL), and streptomycin (100 μg/mL). Normal lymphocytes were cultured in the same medium supplemented with 10% FBS only. Adhesive cancer cell lines (Colon26, GS9L, MCF7, and U87MG) were cultured in DMEM supplemented with 10% FBS, penicillin (100 U/mL), and streptomycin (100 μg/mL). Adhesive non-cancer cell lines, FHC and MCF10A, were cultured in DMEM-F12 and DMEM, respectively, each supplemented with 10% FBS and growth factors. EOC2 cells were cultured in DMEM supplemented with 10% FBS. All cells were cultured in a humidified atmosphere containing 5% CO2 at 37° C. The adhesive cells were released using a trypsin-EDTA solution (0.05% of trypsin/EDTA) and subsequently washed with PBS. The cells were collected by centrifugation (1,000×g/10 min for leukemia lymphocytes; 1,500×g/15 min for normal lymphocytes; and 800×g/5 min for adhesive cells) and placed in a fresh medium without antibiotics and growth factors prior to treatment with vitamin C and/or compound A6. The cells (1×10^6 cells/mL for non-adhesive and 3×10^5 cells/mL for adhesive) were incubated with vitamin C and/or compound A6 for different time intervals in a cell incubator. At each time interval, aliquots were removed for analyses. For lymphocytes, cell proliferation and viability were analyzed by trypan blue staining and automated counting using a COUNTESS automated cell counter. Briefly, 10 μL of trypan blue (0.4%) was added to 10 μL of a cell suspension and incubated for 30 s, and 10 μL of the cell suspension was placed in a COUNTESS glass chamber. The numbers of live and dead cells in the suspension were counted automatically. The linear range of operation with the automated cell counter was 1×10^4-5×10^6 cells/mL, and the optimal cell size was in the range of […].

A further test deals with Normal lymphocytes. The test is described as above. As to conditions: Lymphocyte, combination of vitamin C and compound A6 (weight ratio 100:1), concentration of the named component. As to the method: as §2
Setting [8] is: combination of vitamin C and compound A6 (weight ratio 100:1), concentration of the named component, read-out: IC50.
[9] abbreviates: compound alone, read-out: IC50 (μM) Raji.
Setting [10] is: Colon26, compound alone, read-out: IC50 (μM) Colon26.
Setting [11] is: compound alone, read-out: IC50 (μM) Jurkat.

In general, IC50 refers to the concentration at which inhibition is half-maximal. `COC1=C(OC)C(=O)C(C)=CC1=O` [Compound A6, 2,3-dimethoxy-5-methyl-1,4-benzoquinone]: the concentration for half-maximal inhibition (IC50) in [1] (setting [8]) is 500 µM; in test [1] (setting [9]), > 20 µM; in [2], 350 µM; in test [3], 1100 µM; in the test on Normal microglial cells, > 2000 µM; in test [4], > 2000 µM. The IC50 in test [5] was > 2000 µM; in test [6] (setting [10]), > 20 µM; in [6] (setting [8]), 480 µM; in test [7] (setting [8]), 300 µM; in test [7] (setting [11]), 5 µM; in the test on Normal lymphocytes, > 2000 µM.
As to `O=C1O[C@H]([C@@H](O)CO)C(O)=C1O` [Vitamin C, L-ascorbic acid], the IC50 is 5 µM in test [1] (setting [8]); > 2000 µM in [1] (setting [9]); 3.5 µM in [2]; 11 µM in test [3]; > 20 µM with Normal microglial cells; > 20 µM in test [4]. In addition, the half-maximal inhibitory concentration (IC50) was > 20 µM in [5]; > 2000 µM in [6] (setting [10]); 4.8 µM in test [6] (setting [8]); 3 µM in test [7] (setting [8]); 2000 µM in [7] (setting [11]); > 20 µM in the test with Normal lymphocytes.
